Experimental data as given in ChEMBL document CHEMBL1136926 (J Med Chem, 2009).
Positions of bridges follow the written chain, without caps; N, C: chain ends. Non-standard residues stand in square brackets, D forms with d. Residues, ends and D or L forms follow the SMILES beside them. Phe(4-NO2) = N[C@@H](Cc1ccc([N+](=O)[O-])cc1)C(=O)O; Phe(4-Cl) = N[C@@H](Cc1ccc(Cl)cc1)C(=O)O; 1Nal = N[C@@H](Cc1cccc2ccccc12)C(=O)O; 2Nal = N[C@@H](Cc1ccc2ccccc2c1)C(=O)O; Tic = O=C(O)[C@@H]1Cc2ccccc2CN1; Pen = CC(C)(S)[C@H](N)C(=O)O

What was measured:
Urotensin-2 receptor [1] = molecular target: T1, Urotensin-2 receptor (Homo sapiens, UniProt Q9UKP6); assay: Displacement of [125I]urotensin-2 from human UT2 receptor expressed in CHO-K1 cells by liquid scintillation counting; type: cell-based
T1 sequence (Q9UKP6 whole entry): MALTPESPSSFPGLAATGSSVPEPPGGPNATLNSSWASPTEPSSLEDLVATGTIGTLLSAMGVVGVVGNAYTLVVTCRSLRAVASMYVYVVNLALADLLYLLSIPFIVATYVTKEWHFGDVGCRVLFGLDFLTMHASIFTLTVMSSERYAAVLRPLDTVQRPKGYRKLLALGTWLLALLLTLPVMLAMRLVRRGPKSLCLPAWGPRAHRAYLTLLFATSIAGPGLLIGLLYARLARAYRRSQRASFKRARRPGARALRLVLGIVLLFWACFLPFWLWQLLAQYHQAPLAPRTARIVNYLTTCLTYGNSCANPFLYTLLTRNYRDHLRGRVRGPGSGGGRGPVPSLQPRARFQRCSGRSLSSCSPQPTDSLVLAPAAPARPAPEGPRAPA

Urotensin-2 receptor [2] = molecular target: T2, Urotensin-2 receptor (Rattus norvegicus, UniProt P49684); assay: Agonist activity at UT2 receptor in Albino rat aorta assessed as induction of aortic contraction
T2 sequence (P49684 whole entry): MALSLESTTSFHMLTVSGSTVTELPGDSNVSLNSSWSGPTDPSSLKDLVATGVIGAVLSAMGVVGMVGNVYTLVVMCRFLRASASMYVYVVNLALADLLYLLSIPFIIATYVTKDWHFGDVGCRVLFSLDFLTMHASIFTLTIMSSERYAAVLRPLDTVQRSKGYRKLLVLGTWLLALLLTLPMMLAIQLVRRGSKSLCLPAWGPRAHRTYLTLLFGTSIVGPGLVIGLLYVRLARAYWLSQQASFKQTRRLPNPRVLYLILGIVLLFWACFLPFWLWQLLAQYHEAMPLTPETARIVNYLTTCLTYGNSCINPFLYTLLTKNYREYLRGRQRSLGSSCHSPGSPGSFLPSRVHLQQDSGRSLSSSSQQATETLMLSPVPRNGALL

[3] = molecular target: T3, Urotensin-2 receptor (Rattus norvegicus) (UniProt P49684); assay: Antagonist activity at UT2 receptor in Albino rat aorta assessed as inhibition of […] aortic contraction; type: functional, tissue-based
T3 sequence (whole entry): T2 sequence (P49684 whole entry)

| SMILES | Ki (Urotensin-2 receptor [1]) [nM] | EC50 (Urotensin-2 receptor [2]) [nM] | pKb [3] |
| --- | --- | --- | --- |
| CC(C)[C@H](NC(=O)[C@@H]1CSSC(C)(C)[C@H](NC(=O)[C@@H](N)Cc2ccc(Cl)cc2)C(=O)N[C@@H](Cc2ccccc2)C(=O)N[C@@H](Cc2c[nH]c3ccccc23)C(=O)N[C@@H](CCCCN)C(=O)N[C@@H](Cc2ccc(O)cc2)C(=O)N1)C(=O)O (H-[Phe(4-Cl)][Pen]FWKYCV-OH; disulfide 2-7) | 0.891 | 1.38 | – |
| CC(C)[C@H](NC(=O)[C@@H]1CSSC(C)(C)[C@H](NC(=O)[C@@H](N)CCCCN)C(=O)N[C@@H](Cc2ccccc2)C(=O)N[C@H](Cc2c[nH]c3ccccc23)C(=O)N[C@@H](CCCN)C(=O)N[C@@H](Cc2ccc(O)cc2)C(=O)N1)C(=O)O | 219 | – | – |
| CC(C)[C@H](NC(=O)[C@@H]1CSSC(C)(C)[C@H](NC(=O)[C@@H](N)Cc2ccccc2)C(=O)N[C@@H](Cc2ccccc2)C(=O)N[C@@H](Cc2c[nH]c3ccccc23)C(=O)N[C@@H](CCCCN)C(=O)N[C@@H](Cc2ccc(O)cc2)C(=O)N1)C(=O)O (H-F[Pen]FWKYCV-OH; disulfide 2-7) | 0.282 | 0.661 | – |
| CC(C)[C@H](NC(=O)[C@@H]1CSSC(C)(C)[C@@H](NC(=O)[C@@H]2Cc3ccccc3CN2)C(=O)N[C@@H](Cc2ccccc2)C(=O)N[C@H](Cc2c[nH]c3ccccc23)C(=O)N[C@@H](CCCN)C(=O)N[C@@H](Cc2ccc(O)cc2)C(=O)N1)C(=O)O | – | – | 8.94 |
| CC(C)[C@H](NC(=O)[C@@H]1CSSC[C@H](NC(=O)[C@H](CC(=O)O)NC(=O)[C@@H]2CCCN2C(=O)[C@@H](NC(=O)[C@@H](N)CCC(=O)O)[C@@H](C)O)C(=O)N[C@@H](Cc2ccccc2)C(=O)N[C@@H](Cc2c[nH]c3ccccc23)C(=O)N[C@@H](CCCCN)C(=O)N[C@@H](Cc2ccc(O)cc2)C(=O)N1)C(=O)O [HUMAN UROTENSIN II] | – | 5.01 | – |
| CC(C)[C@H](NC(=O)[C@@H]1CSSC(C)(C)[C@H](NC(=O)[C@@H]2Cc3ccccc3CN2)C(=O)N[C@@H](Cc2ccccc2)C(=O)N[C@@H](Cc2c[nH]c3ccccc23)C(=O)N[C@@H](CCCCN)C(=O)N[C@@H](Cc2ccc(O)cc2)C(=O)N1)C(=O)O (H-[Tic][Pen]FWKYCV-OH; disulfide 2-7) | 2.63 | 1.35 | – |
| CC(C)[C@H](NC(=O)[C@@H]1CSSC(C)(C)[C@H](NC(=O)[C@@H](N)Cc2ccc([N+](=O)[O-])cc2)C(=O)N[C@@H](Cc2ccccc2)C(=O)N[C@@H](Cc2c[nH]c3ccccc23)C(=O)N[C@@H](CCCCN)C(=O)N[C@@H](Cc2ccc(O)cc2)C(=O)N1)C(=O)O (H-[Phe(4-NO2)][Pen]FWKYCV-OH; disulfide 2-7) | 13.5 | 72.4 | – |
| CC(C)[C@H](NC(=O)[C@@H]1CSSC(C)(C)[C@H](NC(=O)[C@@H](N)CCCCN)C(=O)N[C@@H](Cc2ccccc2)C(=O)N[C@@H](Cc2c[nH]c3ccccc23)C(=O)N[C@@H](CCCCN)C(=O)N[C@@H](Cc2ccc(O)cc2)C(=O)N1)C(=O)O (H-K[Pen]FWKYCV-OH; disulfide 2-7) | 9.33 | 6.03 | – |
| CC(C)[C@H](NC(=O)[C@@H]1CSSC(C)(C)[C@@H](NC(=O)[C@@H](N)Cc2ccc3ccccc3c2)C(=O)N[C@@H](Cc2ccccc2)C(=O)N[C@H](Cc2c[nH]c3ccccc23)C(=O)N[C@@H](CCCN)C(=O)N[C@@H](Cc2ccc(O)cc2)C(=O)N1)C(=O)O | – | – | 7.89 |
| CC(C)[C@H](NC(=O)[C@@H]1CSSC(C)(C)[C@H](NC(=O)[C@@H](N)Cc2ccccc2)C(=O)N[C@@H](Cc2ccccc2)C(=O)N[C@H](Cc2c[nH]c3ccccc23)C(=O)N[C@@H](CCCN)C(=O)N[C@@H](Cc2ccc(O)cc2)C(=O)N1)C(=O)O | 19.5 | – | – |
| CC(C)[C@H](NC(=O)[C@@H]1CSSC(C)(C)[C@@H](NC(=O)[C@@H](N)Cc2ccccc2)C(=O)N[C@@H](Cc2ccccc2)C(=O)N[C@H](Cc2c[nH]c3ccccc23)C(=O)N[C@@H](CCCN)C(=O)N[C@@H](Cc2ccc(O)cc2)C(=O)N1)C(=O)O | – | – | 8.68 |
| CC(C)[C@H](NC(=O)[C@@H]1CSSC(C)(C)[C@@H](NC(=O)[C@@H](N)Cc2ccc(Cl)cc2)C(=O)N[C@@H](Cc2ccccc2)C(=O)N[C@H](Cc2c[nH]c3ccccc23)C(=O)N[C@@H](CCCN)C(=O)N[C@@H](Cc2ccc(O)cc2)C(=O)N1)C(=O)O | – | – | 7.85 |
| CC(C)[C@H](NC(=O)[C@@H]1CSSC(C)(C)[C@@H](NC(=O)[C@H](C)N)C(=O)N[C@@H](Cc2ccccc2)C(=O)N[C@H](Cc2c[nH]c3ccccc23)C(=O)N[C@@H](CCCN)C(=O)N[C@@H](Cc2ccc(O)cc2)C(=O)N1)C(=O)O | – | – | 7.84 |
| CC(C)[C@H](NC(=O)[C@@H]1CSSC(C)(C)[C@H](NC(=O)[C@@H]2Cc3ccccc3CN2)C(=O)N[C@@H](Cc2ccccc2)C(=O)N[C@H](Cc2c[nH]c3ccccc23)C(=O)N[C@@H](CCCN)C(=O)N[C@@H](Cc2ccc(O)cc2)C(=O)N1)C(=O)O | 9.33 | – | – |
| CC(C)[C@H](NC(=O)[C@@H]1CSSC(C)(C)[C@H](NC(=O)[C@@H](N)CC(=O)O)C(=O)N[C@@H](Cc2ccccc2)C(=O)N[C@@H](Cc2c[nH]c3ccccc23)C(=O)N[C@@H](CCCCN)C(=O)N[C@@H](Cc2ccc(O)cc2)C(=O)N1)C(=O)O (H-D[Pen]FWKYCV-OH; disulfide 2-7) | – | 0.251 | – |
| CC(C)[C@H](NC(=O)[C@@H]1CSSC(C)(C)[C@H](NC(=O)[C@@H](N)Cc2cccc3ccccc23)C(=O)N[C@@H](Cc2ccccc2)C(=O)N[C@@H](Cc2c[nH]c3ccccc23)C(=O)N[C@@H](CCCCN)C(=O)N[C@@H](Cc2ccc(O)cc2)C(=O)N1)C(=O)O (H-[1Nal][Pen]FWKYCV-OH; disulfide 2-7) | 26.3 | 102 | – |
| CC(C)[C@H](NC(=O)[C@@H]1CSSC(C)(C)[C@H](NC(=O)[C@@H](N)Cc2cccc3ccccc23)C(=O)N[C@@H](Cc2ccccc2)C(=O)N[C@H](Cc2c[nH]c3ccccc23)C(=O)N[C@@H](CCCN)C(=O)N[C@@H](Cc2ccc(O)cc2)C(=O)N1)C(=O)O | 3.89 | – | – |
| CC(C)[C@H](NC(=O)[C@@H]1CSSC(C)(C)[C@H](NC(=O)[C@H](C)N)C(=O)N[C@@H](Cc2ccccc2)C(=O)N[C@H](Cc2c[nH]c3ccccc23)C(=O)N[C@@H](CCCN)C(=O)N[C@@H](Cc2ccc(O)cc2)C(=O)N1)C(=O)O | 1.66 | – | – |
| CC(C)[C@H](NC(=O)[C@@H]1CSSC(C)(C)[C@@H](NC(=O)[C@@H](N)Cc2cccc3ccccc23)C(=O)N[C@@H](Cc2ccccc2)C(=O)N[C@H](Cc2c[nH]c3ccccc23)C(=O)N[C@@H](CCCN)C(=O)N[C@@H](Cc2ccc(O)cc2)C(=O)N1)C(=O)O | – | – | 8.5 |

Other lines, results leading:

| Ki (Urotensin-2 receptor [1]) [nM] | EC50 (Urotensin-2 receptor [2]) [nM] | pKb [3] | SMILES |
| --- | --- | --- | --- |
| 11.7 | – | – | CC(C)[C@H](NC(=O)[C@@H]1CSSC(C)(C)[C@H](NC(=O)[C@@H](N)Cc2ccc3ccccc3c2)C(=O)N[C@@H](Cc2ccccc2)C(=O)N[C@H](Cc2c[nH]c3ccccc23)C(=O)N[C@@H](CCCN)C(=O)N[C@@H](Cc2ccc(O)cc2)C(=O)N1)C(=O)O |
| – | – | 7.49 | CC(C)[C@H](NC(=O)[C@@H]1CSSC(C)(C)[C@@H](NC(=O)[C@@H](N)CCCCN)C(=O)N[C@@H](Cc2ccccc2)C(=O)N[C@H](Cc2c[nH]c3ccccc23)C(=O)N[C@@H](CCCN)C(=O)N[C@@H](Cc2ccc(O)cc2)C(=O)N1)C(=O)O |
| 0.794 | 9.12 | – | CC(C)[C@H](NC(=O)[C@@H]1CSSC(C)(C)[C@H](NC(=O)[C@H](C)N)C(=O)N[C@@H](Cc2ccccc2)C(=O)N[C@@H](Cc2c[nH]c3ccccc23)C(=O)N[C@@H](CCCCN)C(=O)N[C@@H](Cc2ccc(O)cc2)C(=O)N1)C(=O)O |
| 6.46 | 5.25 | – | CC(C)[C@H](NC(=O)[C@@H]1CSSC(C)(C)[C@H](NC(=O)[C@@H](N)Cc2ccc3ccccc3c2)C(=O)N[C@@H](Cc2ccccc2)C(=O)N[C@@H](Cc2c[nH]c3ccccc23)C(=O)N[C@@H](CCCCN)C(=O)N[C@@H](Cc2ccc(O)cc2)C(=O)N1)C(=O)O (H-[2Nal][Pen]FWKYCV-OH; disulfide 2-7) |
| – | 2.51 | – | CC(C)[C@H](NC(=O)[C@@H]1CSSC[C@H](NC(=O)[C@@H](N)CC(=O)O)C(=O)N[C@@H](Cc2ccccc2)C(=O)N[C@@H](Cc2c[nH]c3ccccc23)C(=O)N[C@@H](CCCCN)C(=O)N[C@@H](Cc2ccc(O)cc2)C(=O)N1)C(=O)O (H-DCFWKYCV-OH; disulfide 2-7) |
| 9.55 | – | – | CC(C)[C@H](NC(=O)[C@@H]1CSSC(C)(C)[C@H](NC(=O)[C@@H](N)Cc2ccc(Cl)cc2)C(=O)N[C@@H](Cc2ccccc2)C(=O)N[C@H](Cc2c[nH]c3ccccc23)C(=O)N[C@@H](CCCN)C(=O)N[C@@H](Cc2ccc(O)cc2)C(=O)N1)C(=O)O |
| – | – | 7.9 | CC(C)[C@H](NC(=O)[C@@H]1CSSC(C)(C)[C@@H](NC(=O)[C@@H](N)Cc2ccc([N+](=O)[O-])cc2)C(=O)N[C@@H](Cc2ccccc2)C(=O)N[C@H](Cc2c[nH]c3ccccc23)C(=O)N[C@@H](CCCN)C(=O)N[C@@H](Cc2ccc(O)cc2)C(=O)N1)C(=O)O |
| 15.8 | – | – | CC(C)[C@H](NC(=O)[C@@H]1CSSC(C)(C)[C@H](NC(=O)[C@@H](N)Cc2ccc([N+](=O)[O-])cc2)C(=O)N[C@@H](Cc2ccccc2)C(=O)N[C@H](Cc2c[nH]c3ccccc23)C(=O)N[C@@H](CCCN)C(=O)N[C@@H](Cc2ccc(O)cc2)C(=O)N1)C(=O)O |
